One test has as its system HepG2. Put plainly: Antiproliferative activity against human HepG2 cells after 48 hrs by MTT assay. In kind it is functional, cell-based. The settings on record: HepG2, 48 h. For orientation: Tetrazolium dyes change colour on reduction, which living cells bring about.
Test [1] can be described thus: Antiproliferative activity against human MGC803 cells after 48 hrs by MTT assay. The class given is functional, cell-based. The conditions noted are these: MGC-803, 48 h.
Test [2] is described as follows: Antiproliferative activity against human SGC7901 cells after 48 hrs by MTT assay. In kind it is functional, cell-based. The settings on record: SGC-7901, 48 h.
For test [3], the target named is Telomerase reverse transcriptase (Homo sapiens, UniProt O14746). Put plainly: Inhibition of telomerase in human MGC803 cells after 24 hrs by TRAP-PCR-ELISA method. In kind it is cell-based, MGC-803. Background: An ELISA detects its analyte on a solid surface through an enzyme-linked reagent.
Chain of Telomerase reverse transcriptase (O14746 whole entry): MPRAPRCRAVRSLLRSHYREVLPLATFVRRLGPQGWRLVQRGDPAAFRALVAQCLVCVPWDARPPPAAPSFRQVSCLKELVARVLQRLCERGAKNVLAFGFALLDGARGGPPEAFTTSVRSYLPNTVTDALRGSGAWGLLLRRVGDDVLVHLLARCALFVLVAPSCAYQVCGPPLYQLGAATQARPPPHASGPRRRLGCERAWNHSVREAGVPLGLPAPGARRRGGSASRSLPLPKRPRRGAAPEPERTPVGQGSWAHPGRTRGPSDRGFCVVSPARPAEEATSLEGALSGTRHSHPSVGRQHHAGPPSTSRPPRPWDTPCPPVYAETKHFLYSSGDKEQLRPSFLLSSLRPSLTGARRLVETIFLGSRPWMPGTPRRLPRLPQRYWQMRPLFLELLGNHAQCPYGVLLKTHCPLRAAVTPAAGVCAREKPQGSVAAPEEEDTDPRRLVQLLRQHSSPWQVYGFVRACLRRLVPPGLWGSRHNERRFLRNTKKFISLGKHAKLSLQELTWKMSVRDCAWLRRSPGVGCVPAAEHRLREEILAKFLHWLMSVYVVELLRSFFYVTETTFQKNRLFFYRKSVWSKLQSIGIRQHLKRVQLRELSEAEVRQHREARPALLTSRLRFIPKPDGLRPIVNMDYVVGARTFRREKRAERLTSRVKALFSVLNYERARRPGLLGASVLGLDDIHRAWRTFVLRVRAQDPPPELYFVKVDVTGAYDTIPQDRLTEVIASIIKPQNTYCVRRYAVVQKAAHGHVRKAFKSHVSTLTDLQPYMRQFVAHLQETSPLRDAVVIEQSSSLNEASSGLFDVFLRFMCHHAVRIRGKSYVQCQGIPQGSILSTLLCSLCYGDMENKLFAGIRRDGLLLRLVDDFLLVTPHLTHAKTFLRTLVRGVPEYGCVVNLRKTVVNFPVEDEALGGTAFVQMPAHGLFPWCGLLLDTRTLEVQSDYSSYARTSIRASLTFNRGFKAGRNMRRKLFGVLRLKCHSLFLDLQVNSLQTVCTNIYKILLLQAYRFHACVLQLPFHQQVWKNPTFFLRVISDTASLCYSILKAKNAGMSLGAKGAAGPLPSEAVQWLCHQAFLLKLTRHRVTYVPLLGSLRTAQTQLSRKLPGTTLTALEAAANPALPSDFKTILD

Turning to `CC1=NN(S(=O)(=O)c2ccccc2I)C(c2cc(Br)ccc2O)C1` (stereo not given), the EC50 (as a rule, the midpoint of the concentration-response curve) was more than 60 µM with HepG2, 52.5 µM in test [1] and more than 60 µM in test [2].
With `CC1=NN(C(=O)CCl)C(c2cc(F)ccc2O)C1` (stereo not given), the EC50 amounted to 4.21 µM in the test with HepG2, 6.87 µM in test [1] and 7 µM in test [2].
For `COc1ccc(S(=O)(=O)N2N=C(C)CC2c2cc(Br)ccc2O)cc1` (stereo not given), in that order: 38.2 µM, 20.3 µM and 21.1 µM.
For `CC1=NN(S(=O)(=O)c2ccc(F)cc2)C(c2cc(Br)ccc2O)C1` (stereo not given), in that order: 50.1 µM, 15.5 µM and more than 60 µM.
For `CC1=NN(S(=O)(=O)c2ccc(Cl)cc2Cl)C(c2cc(Br)ccc2O)C1` (stereo not given), in that order: 45.2 µM, 37.9 µM and more than 60 µM.
Take `CC1=NN(C(=O)C(F)(F)F)C(c2ccccc2O)C1` (stereo not given): the IC50 (usually the midpoint of a concentration-inhibition curve) in test [3] came out at 1.86 µM. Further, the EC50 with HepG2 worked out at 4.8 µM; in test [1] it was 2.89 µM; in test [2], 2.06 µM.
Turning to `CC1=NN(S(=O)(=O)c2ccc(C(F)(F)F)cc2)C(c2cc(Br)ccc2O)C1` (stereo not given), the IC50 in test [3] was more than 60 µM. The concentration giving a half-maximal response (EC50) in the test on HepG2 was 22.1 µM; in test [1] it was 30 µM; in test [2], 16.3 µM.
Turning to `CC1=NN(C(=O)CBr)C(c2ccccc2O)C1` (stereo not given), the EC50 worked out at 14.4 µM in the test on HepG2, 3.65 µM in test [1] and 4.18 µM in test [2].
With `CC1=NN(S(=O)(=O)c2ccc(Cl)cc2)C(c2cc(Br)ccc2O)C1` (stereo not given), the half-maximal effective concentration (EC50) (in the test on HepG2; in test [1]; in test [2]) was more than 60 µM each time.
As to `CC1=NN(S(=O)(=O)c2ccccc2)C(c2cc(Br)ccc2O)C1` (stereo not given), the figures for the EC50 (with HepG2; in test [1]; in test [2]) were more than 60 µM, more than 60 µM and 55.6 µM, respectively.
As to `COc1ccc(C(=O)N2N=C(C)CC2c2ccccc2O)cc1` (stereo not given), the IC50 in test [3] was determined as 25 µM. Also, the concentration giving a half-maximal response (EC50) with HepG2 is 40.3 µM; in test [1] it was 38.5 µM; in test [2] it was 45.7 µM.
Consider `CC1=NN(S(=O)(=O)c2ccccc2C)C(c2cc(Br)ccc2O)C1` (stereo not given), for which the EC50 is 39.3 µM in the test on HepG2, more than 60 µM in test [1] and 48.1 µM in test [2].
For the compound `CC1=NN(C(=O)CCl)C(c2cc(Cl)ccc2O)C1` (stereo not given), the EC50 was determined as 20.3 µM in the test on HepG2, 12.2 µM in test [1] and 14 µM in test [2].
In test [3], `CC1=NN(C(=O)c2ccc(F)cc2)C(c2ccccc2O)C1` (stereo not given) had an IC50 of 29.8 µM. The EC50 in the test with HepG2 came out at 39.2 µM; in test [1] it was 35.4 µM; in test [2], 50.3 µM.
Regarding `CC1=NN(C(=O)CCl)C(c2cc(Br)ccc2O)C1` (stereo not given), the EC50 with HepG2 is 12.3 µM; in test [1] it was 10.5 µM; in test [2] it was 9.21 µM.
For the compound `CC1=NN(C(=O)CF)C(c2ccccc2O)C1` (stereo not given), the IC50 in test [3] is 4 µM. Moreover, the results for the EC50 (in the test on HepG2; in test [1]; in test [2]) were 9.41 µM, 4.26 µM and 8.6 µM, respectively.
Consider `CC1=NN(S(=O)(=O)c2ccc([N+](=O)[O-])cc2)C(c2cc(Br)ccc2O)C1` (stereo not given), for which the EC50 with HepG2 was more than 60 µM; in test [1], 22.2 µM; in test [2], 27.3 µM.
For `O=c1[nH]cc(F)c(=O)[nH]1` [FLUOROURACIL], in that order: 2.21 µM, 3.35 µM and 7.03 µM.
With `CC[n+]1c(-c2ccccc2)c2cc(N)ccc2c2ccc(N)cc21` [HOMIDIUM BROMIDE], the IC50 in test [3] is 2.18 µM.

Source of the values: ChEMBL document CHEMBL3779782, “Identification of human telomerase inhibitors having the core of N-acyl-4,5-dihydropyrazole with anticancer effects” (Bioorg Med Chem Lett, 2016).
